Test results taken from patent US4370338A (priority 1980, dated 1983).
Like-named read-outs stand apart in the source and are kept apart here.

Key:
[1] = test system: convulsions caused by supramaximal electric shock (ESM); test: Supramaximal electric shock (ESM) convulsions in the mouse, oral; format: in vivo, mouse (male CD1, Charles River); settings: 1.5 h, read-out: ED50 E.S.M. (mouse orally)
Experimental: These effects have been shown in vivo on the mouse and the rat. In the case of the mouse, the product is administered orally, in increasing doses, to batches of 10 male mice CD1 (Charles River) of 20-27 g, 90 minutes before exposure to a supramaximal electric shock (ESM), according to the method described by G. M. Everett and R. K. Richards (J. Pharmacol, Exptl. Therap. 81, 402, 1944).
(§1) The results obtained are collected in the following Table 1, wherein there are also given, for comparison, the results provided by two reference anticonvulsants (valproic acid, phenobarbital).

[2] = test system: convulsions caused by isoniazide (INH); test: animal or person; format: in vivo, rat (male CD, Charles River); settings: for ED50: 25 min, rat, ip, 25 minutes after 500 mg/kg sc isoniazide, dose protecting 50% of animals, read-out: ED50 I.N.H. (rat ip)
Experimental: (§2) In the case of the male rat CD (Charles River) of 200-230 g, the convulsions are caused by the subcutaneous injection either of 500 mg/kg of isoniazide (INH) or of 1.5 mg/kg of a strychnine in the form of the sulfate. According to the protocol described by J. L. Costa et al. (Adv. Biochem., Pharmacol., 14, 113, 1975), the product to be tested is administered intraperitoneally 25 minutes after the isoniazide and 5 minutes before the strychnine. The number of animals having shown convulsions is registered during an observation period of 60 minutes after the injection of the isoniazide and 25 minutes after the injection of the strychnine.

[3] = test system: convulsions caused by strychnine; test: Strychnine convulsions in the rat, intraperitoneal; format: in vivo, rat (male CD, Charles River); settings: for ED50: Rattus norvegicus, ip, read-out: ED50 Strychnine (rat ip)
Experimental: as §2, §1

male mouse CD1 = test: Test of the 4 plates (anxiolytic activity); format: in vivo, Charles River); settings: 90 minutes before test, vs control group
Experimental: The anxiolytic activity of the product has been shown on the mouse, by use of the method called the test of the 4 plates, described by J. R. Boissier et al. (Europ. J. Pharmacol., 4, 145, 1968).
90 minutes after oral administration of the product, the animal undergoing the test (male mouse CD1 Charles River of 20-27 g) is placed in a box the base or floor of which is formed of four separated metal plates. Each time the animal passes from one plate to another, all the plates are electrified. The animal rapidly associates displacement and an electric shock and stays immovable on one of the plates. The number of crossings effected by the mouse in 2 minutes is thus determined.
The animals are divided into groups of 20 mice, the control group receiving only the vehicle. The results obtained for the treated groups are expressed by a percentage increase of the number of passages with respect to the control group and are collected in Table 2 below.

SMILES	ED50 ([1]; mouse, oral, 90 minutes before supramaximal electric shock, dose protecting 50% of animals) [mg/kg]	ED50 [2] [mg/kg]	doses inhibiting INH convulsions, times less than those necessary to inhibit strychnine convulsions ([2]; INH versus strychnine convulsions) [times]	ED50 [3] [mg/kg]	% increase of the number of passages (male mouse CD1; 5 mg/kg orally) [%]	% increase of the number of passages (male mouse CD1; 10 mg/kg orally) [%]	% increase of the number of passages (male mouse CD1; 20 mg/kg orally) [%]	% increase of the number of passages (male mouse CD1; 25 mg/kg orally (first line printed 25)) [%]	% increase of the number of passages (male mouse CD1; 25 mg/kg orally (second line printed 25)) [%]	ED50 ([1]; Mus musculus, po) [mg/kg]	ED50 Strychnine (rat ip), result in words ([3]; rat, inactive at 600 (mg/kg))
Nc1nc2ccc(OC(F)(F)F)cc2s1 [2-Amino-6-trifluoromethoxy-benzothiazole]	10	2.2	4	8.4	50	61	100	162	215		
CCC1(c2ccccc2)C(=O)NC(=O)NC1=O [Phenobarbital]		16		33						26	
CCCC(CCC)C(=O)O [Valproic acid]		180								450	inactive
